# Experimental data reported in patent US11197856B2, “Bicyclic compounds and methods for their use in treating autism” (priority 2013, dated 2021).
# Legend:
# [1] = tested on: fmr1-knockout mice and wild-type mice; assay: Elevated Plus Maze; assay type: in vivo
# From the text: In another study, we used an “Elevated Plus Maze.” The Elevated Plus Maze test is one of the most widely used tests for measuring anxiety-like hyperactivity in mice. The test is based on the natural aversion of mice for open and elevated areas, as well as on their natural spontaneous exploratory behavior in novel environments. FIG. 23 depicts a photograph of a device used in this study. The apparatus consists of two open arms and two closed arms, crossed in the middle perpendicularly to each other, and a center area. The open arms are more exposed and therefore create more anxiety in the mice. Mice therefore spend more time in the closed arms and visit them more frequently. Mice were given access to all of the arms and were allowed to move freely between them. The number of entries into the open arms, the time spent in the open arms, and time spent in the center were used as indices of open space-induced anxiety.
# [2] = tested on: Aged rats; assay: Novel Object Recognition Test (NORT) in aged rats; assay type: in vivo, male Wistar rats; details: 27 days after single 20 ng/animal i.c.v.
# Procedure: Aged rats (male Wistar rats, 18-20 months old) were divided into four groups: two vehicle-treated (groups 1 and 3) and two G-2-AllylP treated (groups 2 and 4) (all groups n=6-8). Cyclic G-2-AllylP was synthesised by the Department of Medicinal Chemistry and dissolved in normal saline before the treatment. On day 1 a single dose of cyclic G-2-AllylP was given centrally (20 ng/animal, i.c.v.) to the animals in groups 2 and 4; saline was administered to groups 1 and 3. The memory tests using Novel Object Recognition Test started either on day 3 (groups 1 and 2) or 24 (groups 3 and 4) after the treatment. On the completion of the NORT, the rats were killed with an overdose of sodium pentobarbital and were perfused transcardially with normal saline followed by 10% formalin. Tissues collected at day 7 in groups 1 and 2, and at day 28 from groups 3 and 4. The brains were kept in the same fixative for a minimum of 2 days before being processed using a standard paraffin embedding procedure. Briefly, small blocks (10×10×3 mm) of tissue were fixed for up to 24 hrs. The blocks were then infiltrated and embedded with paraffin and cut in ribbons and mounted on slides. Slides were then stored until immunostaining was commenced. Synaptogenesis in brain tissue was examined using immunohistochemical staining. […]
# [3] = tested on: MeCP2 knockout mice; assay: Nocturnal activity measurements; assay type: in vivo; details: MeCP2 knockout mice after 6 weeks; nocturnal infrared beam crossing
# Procedure: Spontaneous motor activity is measured by using an infrared beam-activated movement-monitoring chamber (Opto-Varimax-MiniA; Columbus Instruments, Columbus, Ohio). For each experiment, a mouse is placed in the chamber at least 3 h before recordings started. Movement is monitored during the normal 12-h dark cycle (7 p.m. to 7 a.m.). One dark cycle per animal per time point is collected.
# MeCP2−/y mice develop Rett-like symptoms beginning at 4-6 weeks of age when they progressively become lethargic, develop gait ataxia and […] (Chen et al., 2001). Baseline locomotor activity is also recorded in mice after 6 weeks by counting nocturnal infrared beam crossing events within a caged area.
# [4] = tested on: ERK1/2; assay: Phosphorylated ERK by Western blot; assay type: in vivo, mice; details: full brain lysates; fmr1-knockout animals vs vehicle
# Procedure: Phosphorylation levels of ERK1/2 and Akt of full brain lysates were evaluated using Western blots. The mice were sacrificed and the brains removed 12 days after the last injection, and immediately after the last behavioral test. Other studies measured pERK and pAkt in blood lymphocytes. The results of Western analysis were normalized to the amount of GAPDH protein seen in each blot.
# [5] = tested on: interleukin-6; assay: PBBI in rats: IL-6 ELISA; assay type: in vivo
# From the text: The unilateral frontal PBBI model, which mimics the ballistic dynamics of a bullet or fragment wound to the head (Williams, 2003; Williams, 2006), was induced by stereotactic insertion of a custom probe through the right frontal cortex. A temporary cavity was formed by the rapid inflation/deflation (i.e. <40 msec) of an elastic balloon attached to the end of the probe. The PBBI apparatus consisted of a computer-controlled hydraulic pressure generator (Mitre Corp McLean, Va.), a PBBI probe and a stereotaxic frame equipped with a custom-designed probe holder as previously described (Lu, 2009; Williams, 2003). The injury severity was determined by the size of the balloon under control of the computerized hydraulic pressure. The balloon diameter calibrated to 0.63 cm expansion represented 10% of the total rat brain volume thus expressing a 10% PBBI. All surgeries were done under anaesthesia. Groups tested: Sham+vehicle, PBBI+vehicle, PBBI+cG-2-AllylP (30 mg/kg by oral gavage, 30 min post-injury, and again once daily until endpoint). AU procedures were approved by the Institutional Animal Care and Use Committee of WRAIR. Animals were housed in a facility accredited by the AAALAC.
# cG-2-AllylP (or vehicle) was administered to the animals via oral gavage at a dose of 30 mg/kg.
# Target proteins were quantified with interleukin 1 beta (“IL-1beta”) (GenWay Biotech GWB-SKR107) and interleukin-6 (“IL-6”) (GenWay Biotech GWB-ZZD100) ELISAs according to manufacturer's instructions. Levels were calculated and normalized to total protein concentration as determined by BCA assay (n=9-10 per group).
smiles,measurement,setting,value
"C=CC[C@]12CCCN1C(=O)CNC2=O [cG-2-AllylP, (8aS)-Allyl-hexahydropyrrolo[1,2-a]pyrazine-1,4-dione]",time spent in the closed arm,[1]; fmr1-knockout animals,normalized the time spent in the closed arm
same,time spent in the open arms,[1]; fmr1-knockout animals,normalized the time spend in the open arms
same,time spent in the center,"[1]; fmr1-knockout mice, p<0.001",significantly less time than vehicle-treated fmr1-knockout animals
same,time spent in the center,[1]; wild-type mice,slightly less time in the center than did vehicle-treated wild-type animals
same,time spent in the closed arm,[1]; wild-type mice,about the same amount of time in the closed arm
same,novelty recognition (NORT),[2],trend to improve the novelty recognition
same,locomotor activity levels,[3],elevates these levels
same,ERK phosphorylation,[4],significantly reduced ERK phosphorylation
same,IL-6 levels,"[5]; 24 hrs. after PBBI, 30 mg/kg oral gavage",decreased IL-6 levels
same,IL-6 levels,"[5]; 3 days after PBBI, 30 mg/kg oral gavage once daily",little effect at 3 days
same,IL-6 levels,"[5]; 7 days after PBBI, 30 mg/kg oral gavage once daily",decreased IL-6 levels
